In patent US8236790B2, “Benzothiadiazepine compounds, a process for their preparation and pharmaceutical compositions containing them” (Les Laboratories Servier, priority 2009, dated 2012):

Columns and labels:
AMPA receptor = assay: Membrane depolarisation brought about by AMPA in primary cultures of rat neurons (fluorescence); type: cell-based; details: read-out: EC2X (the concentration of compound which doubles the membrane potential brought about by AMPA); cultured rat embryonic neurons, AMPA 3 to 100 μM
Method: Study of the Effect of Compounds on the Membrane Depolarisation Brought about by AMPA in Primary Cultures of Rat Neurons
The test comprises the in vitro measurement, by means of fluorescence, of the membrane depolarisation brought about in cultured rat embryonic neurons by the joint action of AMPA and the compound under test, compared to the action of AMPA alone. The brain cells are placed in culture and kept in a cell culture incubator for 18 days. After incubation, the culture medium is withdrawn and replaced with fluorescent probe loading medium for measurement of the membrane potential (20 μl; membrane potential kit from Molecular Devices) and left at ambient temperature for 1 hour. The base fluorescence of the wells is read (FDSS apparatus from Hamamatsu) and the cells are then injected with AMPA (20 μl; concentration range: from 3 to 100 μM) and the action of the AMPA is measured kinetically. The test compound is then introduced into the wells (20 μl; in a concentration range crossed with that of AMPA) and the action of the compound is measured kinetically. At the end of each of the two periods of kinetic measurement, the result for each well is the average reading over the final 15 seconds of the period. The curves are plotted of the effect of AMPA at the various concentrations of compound. […]

CD1 mouse = assay: Object recognition in the CD1 mouse; type: in vivo; details: doses of 1 and 3 mg/kg PO, 60 minutes before each of the 3 phases
Description: Object Recognition in the CD1 Mouse
The object recognition test (Behay. Brain Res., 1988, 31, 47-59) is based on the spontaneous exploratory activity of the animal and has the characteristics of episodic memory in humans. This memory test is sensitive to ageing (Eur. J. Pharmacol., 1997, 325, 173-180) and to cholinergic dysfunctions (Pharm. Biochem. Behay., 1996, 53(2), 277-283) and is based on the differences in the exploration of 2 objects of fairly similar shape—one familiar, the other new. The test procedure, which has been adapted for the CD1 mouse, comprises 3 phases which take place in the same test enclosure. During the first phase, which lasts 40 minutes, the mice are habituated to the environment. During the second phase, which takes place the next day, an object is placed in the enclosure and the mouse is free to explore it. Once the duration of that exploration has reached 20 seconds, the mouse is taken out of the enclosure. In the course of the third phase (5 minutes), 24 hours later, the same object is presented (acquiring the status of a “familiar” object), as well as a new object. The duration of exploration, expressed in seconds, is timed for each of the two objects.

[1] = system: NMDA-type glutamatergic receptors from rat cortex; assay: Current induced by NMDA in oocytes of Xenopus laevis injected with poly(A+) mRNA from rat cortex (two-electrode voltage clamp); type: cell-based; details: NMDA 3×10^−4M with 3×10^−5M glycine, −60 mV, magnesium-free OR2; read-out: IC50 (concentration of product which inhibits the current induced by NMDA by 50%)
Method: Effect of Compounds on the Current Induced by NMDA in Oocytes of Xenopus laevis Injected with Poly(A^+) mRNA from Rat Cortex
Electrophysiological recordings are carried out on oocytes of Xenopus laevis injected with poly(A^+) mRNA from rat cortex and expressing, inter alia, NMDA-type glutamatergic receptors from rat cortex, in a plexiglass recording chamber continuously perfused with OR2 solution not containing magnesium (which blocks the opening of the NMDA receptor channel) and at ambient temperature. The inward current induced by an application of NMDA is recorded at a resting potential of −60 mV, using a standard two-electrode voltage clamp technique. The NMDA (3×10^−4M) is applied with the perfusion solution in the presence of 3×10^−5M glycine for 30 seconds every 5 minutes, at a constant perfusion rate of 3 ml/min. The amplitude of the current induced by NMDA is measured at the peak of the current. The tested compounds are applied at increasing doses to the same oocyte in the perfusion solution 45 seconds before, 30 seconds during and 30 seconds after the application of 3×10^−4M NMDA in the presence of 3×10^−5M glycine every 5 minutes. The amplitude of the current induced by NMDA in the presence of compound is normalised and expressed as a percentage of that induced in the same oocyte in the absence of product, which corresponds to 100% response. […]

| SMILES | EC2X (AMPA receptor) [µM] | exploration of the new object compared to the familiar object (CD1 mouse) | IC50 [1] [µM] | melting point [°C] |
| --- | --- | --- | --- | --- |
| O=S1(=O)NCCNc2ccc(Oc3ccccc3)cc21 [Example 1, 8-phenoxy-2,3,4,5-tetrahydro-1,2,5-benzothiadiazepine 1,1-dioxide] | 25 | significantly greater exploration of the new object | 9 | – |
| O=S1(=O)NCCNc2ccc(Oc3ccc(OCc4ccccc4)cc3)cc21 [Example 8, 8-[4-(benzyloxy)phenoxy]-2,3,4,5-tetrahydro-1,2,5-benzothiadiazepine 1,1-dioxide] | – | – | – | 134 |
